ChEMBL document CHEMBL1909046, “DrugMatrix in vitro pharmacology data”

Columns and labels:
[1] = target: Vascular endothelial growth factor receptor 1 (Homo sapiens, UniProt P17948); format: cell-based; details: huvec; also: in other assays of this panel Not Active means under 50% inhibition at 10 µM
[2] = DRUGMATRIX: Interleukin IL-1 radioligand binding (ligand: [125I] interleukin 1beta); format: cell membranes, Membrane; details: nih3t3; Not Active = under 50% inhibition at 10 µM
[3] = target: T1, Neuropeptide Y receptor type 2 (Homo sapiens, UniProt P49146); format: cell membranes, Membrane; details: kan-ts; also: in other assays of this panel Not Active means under 50% inhibition at 10 µM
T1 sequence (P49146 whole entry): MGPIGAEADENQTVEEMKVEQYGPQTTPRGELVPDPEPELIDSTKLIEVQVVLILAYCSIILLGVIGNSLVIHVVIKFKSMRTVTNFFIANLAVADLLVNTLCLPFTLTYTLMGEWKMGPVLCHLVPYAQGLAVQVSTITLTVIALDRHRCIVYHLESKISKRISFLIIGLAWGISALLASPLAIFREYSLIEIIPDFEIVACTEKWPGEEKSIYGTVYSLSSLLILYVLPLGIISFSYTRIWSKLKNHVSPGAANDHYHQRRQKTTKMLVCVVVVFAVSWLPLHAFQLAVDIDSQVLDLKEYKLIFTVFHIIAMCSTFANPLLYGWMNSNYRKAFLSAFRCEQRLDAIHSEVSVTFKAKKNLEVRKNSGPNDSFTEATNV

Acetylcholinesterase = Acetylcholinesterase (Homo sapiens, UniProt P22303); assay: DRUGMATRIX: Acetylcholinesterase enzyme inhibition (substrate: acetylthiocholine); format: cell-based, HEK293; details: hek293; Not Active = under 50% inhibition at 10 µM
D(3) dopamine receptor = D(3) dopamine receptor (Homo sapiens, UniProt P35462); assay: DRUGMATRIX: Dopamine D3 radioligand binding (ligand: [3H] Spiperone); format: cell membranes, CHO, Membrane; details: cho
[4] = target: T2, 5-hydroxytryptamine receptor 2C (Homo sapiens, UniProt P28335); assay: DRUGMATRIX: Serotonin (5-Hydroxytryptamine) 5-HT2C radioligand binding (ligand: [3H] Mesulergine); format: cell membranes, CHO-K1, Membrane; details: cho-k1; Not Active = under 50% inhibition at 10 µM
T2 sequence (P28335 whole entry): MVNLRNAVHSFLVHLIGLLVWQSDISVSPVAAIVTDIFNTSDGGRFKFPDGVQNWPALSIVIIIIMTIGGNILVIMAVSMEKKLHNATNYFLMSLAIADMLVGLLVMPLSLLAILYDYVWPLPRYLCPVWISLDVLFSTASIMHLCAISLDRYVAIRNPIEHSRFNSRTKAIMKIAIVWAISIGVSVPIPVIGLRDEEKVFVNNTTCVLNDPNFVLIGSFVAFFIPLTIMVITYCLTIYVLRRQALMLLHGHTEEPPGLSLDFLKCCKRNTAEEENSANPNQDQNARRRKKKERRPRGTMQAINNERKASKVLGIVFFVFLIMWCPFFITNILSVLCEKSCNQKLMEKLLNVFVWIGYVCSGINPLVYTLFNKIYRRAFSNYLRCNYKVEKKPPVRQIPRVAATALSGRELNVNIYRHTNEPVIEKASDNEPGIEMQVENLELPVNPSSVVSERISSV

Melanocortin receptor 5 = Melanocortin receptor 5 (Homo sapiens, UniProt P33032); format: cell membranes, HEK293, Membrane; details: hek293; also: in other assays of this panel Not Active means under 50% inhibition at 10 µM
[5] = target: T3, 3-hydroxy-3-methylglutaryl-coenzyme A reductase (Homo sapiens, UniProt P04035); set-up: species or system Escherichia coli;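 also: enzyme inhibition assay of HMG-CoA reductase using radiolabeled [14C]HMG-CoA as substrate; in other assays of this panel Not Active means under 50% inhibition at 10 µM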
T3 sequence (P04035 whole entry): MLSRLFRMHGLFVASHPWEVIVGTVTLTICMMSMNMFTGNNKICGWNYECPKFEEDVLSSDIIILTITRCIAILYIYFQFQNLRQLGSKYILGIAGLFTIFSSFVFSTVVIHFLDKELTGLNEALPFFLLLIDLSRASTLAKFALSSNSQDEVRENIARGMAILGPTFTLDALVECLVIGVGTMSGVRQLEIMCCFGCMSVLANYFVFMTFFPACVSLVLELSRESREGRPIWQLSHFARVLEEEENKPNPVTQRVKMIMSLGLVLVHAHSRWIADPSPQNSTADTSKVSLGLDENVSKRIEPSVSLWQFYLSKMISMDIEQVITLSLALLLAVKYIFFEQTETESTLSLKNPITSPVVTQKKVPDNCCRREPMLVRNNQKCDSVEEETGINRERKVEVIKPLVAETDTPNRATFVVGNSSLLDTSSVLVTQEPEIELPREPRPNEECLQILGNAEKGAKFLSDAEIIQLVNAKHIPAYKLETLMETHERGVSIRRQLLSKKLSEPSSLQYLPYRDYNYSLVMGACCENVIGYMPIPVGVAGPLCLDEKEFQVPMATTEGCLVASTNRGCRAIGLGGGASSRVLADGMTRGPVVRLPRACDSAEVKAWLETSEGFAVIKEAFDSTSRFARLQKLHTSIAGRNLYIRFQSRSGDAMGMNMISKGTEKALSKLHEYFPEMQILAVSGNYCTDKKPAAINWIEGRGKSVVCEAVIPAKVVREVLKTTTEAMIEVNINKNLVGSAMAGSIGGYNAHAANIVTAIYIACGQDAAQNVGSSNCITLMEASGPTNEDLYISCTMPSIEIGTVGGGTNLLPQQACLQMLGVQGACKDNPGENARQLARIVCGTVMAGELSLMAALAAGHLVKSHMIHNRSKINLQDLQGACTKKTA

[6] = target: Delta-type opioid receptor (Homo sapiens, UniProt P41143); format: cell membranes, HEK293, Membrane; details: hek293; also: in other assays of this panel Not Active means under 50% inhibition at 10 µM
Adenosine receptor A2a = Adenosine receptor A2a (Homo sapiens, UniProt P29274); assay: DRUGMATRIX: Adenosine A2A radioligand binding (ligand: […]); format: cell membranes, HEK293, Membrane; details: hek293; Not Active = under 50% inhibition at 10 µM
[7] = DRUGMATRIX: GABAA, Chloride Channel, TBOB radioligand binding (ligand: [3H] TBOB); format: cell membranes, Rattus norvegicus, Wistar, Cerebral cortex, Membrane; details: Not Active = under 50% inhibition at 10 µM
Cytochrome P450 2A6 = target: T4, Cytochrome P450 2A6 (Homo sapiens, UniProt P11509); details: bti-tn-5b1-4; also: in other assays of this panel Not Active means under 50% inhibition at 10 µM
T4 sequence (P11509 whole entry): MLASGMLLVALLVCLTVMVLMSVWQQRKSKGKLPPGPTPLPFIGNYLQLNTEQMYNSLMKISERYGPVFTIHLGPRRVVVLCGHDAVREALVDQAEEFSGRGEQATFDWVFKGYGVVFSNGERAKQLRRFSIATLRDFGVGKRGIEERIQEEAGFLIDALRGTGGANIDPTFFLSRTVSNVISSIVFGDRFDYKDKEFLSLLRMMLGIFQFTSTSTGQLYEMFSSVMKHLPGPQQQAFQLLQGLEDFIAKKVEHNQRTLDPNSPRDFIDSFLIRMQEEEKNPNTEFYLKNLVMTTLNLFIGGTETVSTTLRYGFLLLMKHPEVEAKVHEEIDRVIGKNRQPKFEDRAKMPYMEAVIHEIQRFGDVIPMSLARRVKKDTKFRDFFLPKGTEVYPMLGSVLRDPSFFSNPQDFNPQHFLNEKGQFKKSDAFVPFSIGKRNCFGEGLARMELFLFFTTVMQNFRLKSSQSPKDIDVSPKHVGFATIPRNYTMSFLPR

Chain of Acetylcholinesterase (P22303 whole entry): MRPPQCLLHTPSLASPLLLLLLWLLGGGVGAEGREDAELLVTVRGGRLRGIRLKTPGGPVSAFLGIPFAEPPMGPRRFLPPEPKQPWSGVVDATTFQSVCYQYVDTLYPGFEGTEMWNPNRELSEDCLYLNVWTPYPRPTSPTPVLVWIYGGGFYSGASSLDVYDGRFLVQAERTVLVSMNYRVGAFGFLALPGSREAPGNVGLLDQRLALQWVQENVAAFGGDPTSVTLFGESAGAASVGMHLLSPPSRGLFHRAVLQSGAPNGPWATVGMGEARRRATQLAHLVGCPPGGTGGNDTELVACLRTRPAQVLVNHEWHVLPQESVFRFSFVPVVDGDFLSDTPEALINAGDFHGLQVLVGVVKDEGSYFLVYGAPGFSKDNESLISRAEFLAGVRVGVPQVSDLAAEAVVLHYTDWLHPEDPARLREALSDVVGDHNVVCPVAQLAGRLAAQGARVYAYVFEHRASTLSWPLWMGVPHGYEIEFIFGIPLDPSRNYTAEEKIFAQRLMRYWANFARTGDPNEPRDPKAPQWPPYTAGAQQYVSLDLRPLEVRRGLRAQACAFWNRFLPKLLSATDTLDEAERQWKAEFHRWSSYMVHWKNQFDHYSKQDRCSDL
Chain of Adenosine receptor A2a (P29274 whole entry): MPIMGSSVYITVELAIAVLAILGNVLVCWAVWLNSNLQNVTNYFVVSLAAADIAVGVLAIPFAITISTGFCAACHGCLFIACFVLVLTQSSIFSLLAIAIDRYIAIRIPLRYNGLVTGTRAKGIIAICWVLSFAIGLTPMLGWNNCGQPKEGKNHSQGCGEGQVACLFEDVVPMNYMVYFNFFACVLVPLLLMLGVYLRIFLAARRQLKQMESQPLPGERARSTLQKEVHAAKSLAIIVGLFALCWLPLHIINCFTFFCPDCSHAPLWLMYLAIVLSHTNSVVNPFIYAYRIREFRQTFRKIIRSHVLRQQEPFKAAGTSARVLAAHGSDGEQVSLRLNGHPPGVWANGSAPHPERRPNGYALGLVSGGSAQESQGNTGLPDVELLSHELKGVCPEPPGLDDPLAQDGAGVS
Chain of Melanocortin receptor 5 (P33032 whole entry): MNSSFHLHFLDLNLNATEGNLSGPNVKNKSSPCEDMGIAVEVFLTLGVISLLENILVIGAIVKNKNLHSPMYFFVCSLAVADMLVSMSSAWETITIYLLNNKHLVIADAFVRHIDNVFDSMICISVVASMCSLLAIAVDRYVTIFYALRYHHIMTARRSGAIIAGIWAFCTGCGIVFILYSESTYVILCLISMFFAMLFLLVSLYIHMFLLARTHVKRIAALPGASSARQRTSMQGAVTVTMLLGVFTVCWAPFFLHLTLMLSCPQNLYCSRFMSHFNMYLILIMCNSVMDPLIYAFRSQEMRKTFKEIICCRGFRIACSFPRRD
Chain of D(3) dopamine receptor (P35462 whole entry): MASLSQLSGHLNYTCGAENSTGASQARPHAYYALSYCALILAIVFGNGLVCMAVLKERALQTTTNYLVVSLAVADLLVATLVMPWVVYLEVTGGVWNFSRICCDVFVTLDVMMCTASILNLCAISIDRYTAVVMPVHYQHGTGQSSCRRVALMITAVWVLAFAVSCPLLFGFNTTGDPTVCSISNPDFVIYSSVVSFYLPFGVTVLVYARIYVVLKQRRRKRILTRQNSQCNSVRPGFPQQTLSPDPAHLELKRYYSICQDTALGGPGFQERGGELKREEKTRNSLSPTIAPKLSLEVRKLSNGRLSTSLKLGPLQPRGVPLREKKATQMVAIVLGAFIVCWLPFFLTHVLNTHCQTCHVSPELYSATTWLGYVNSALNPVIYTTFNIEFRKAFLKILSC
Chain of Vascular endothelial growth factor receptor 1 (P17948 whole entry): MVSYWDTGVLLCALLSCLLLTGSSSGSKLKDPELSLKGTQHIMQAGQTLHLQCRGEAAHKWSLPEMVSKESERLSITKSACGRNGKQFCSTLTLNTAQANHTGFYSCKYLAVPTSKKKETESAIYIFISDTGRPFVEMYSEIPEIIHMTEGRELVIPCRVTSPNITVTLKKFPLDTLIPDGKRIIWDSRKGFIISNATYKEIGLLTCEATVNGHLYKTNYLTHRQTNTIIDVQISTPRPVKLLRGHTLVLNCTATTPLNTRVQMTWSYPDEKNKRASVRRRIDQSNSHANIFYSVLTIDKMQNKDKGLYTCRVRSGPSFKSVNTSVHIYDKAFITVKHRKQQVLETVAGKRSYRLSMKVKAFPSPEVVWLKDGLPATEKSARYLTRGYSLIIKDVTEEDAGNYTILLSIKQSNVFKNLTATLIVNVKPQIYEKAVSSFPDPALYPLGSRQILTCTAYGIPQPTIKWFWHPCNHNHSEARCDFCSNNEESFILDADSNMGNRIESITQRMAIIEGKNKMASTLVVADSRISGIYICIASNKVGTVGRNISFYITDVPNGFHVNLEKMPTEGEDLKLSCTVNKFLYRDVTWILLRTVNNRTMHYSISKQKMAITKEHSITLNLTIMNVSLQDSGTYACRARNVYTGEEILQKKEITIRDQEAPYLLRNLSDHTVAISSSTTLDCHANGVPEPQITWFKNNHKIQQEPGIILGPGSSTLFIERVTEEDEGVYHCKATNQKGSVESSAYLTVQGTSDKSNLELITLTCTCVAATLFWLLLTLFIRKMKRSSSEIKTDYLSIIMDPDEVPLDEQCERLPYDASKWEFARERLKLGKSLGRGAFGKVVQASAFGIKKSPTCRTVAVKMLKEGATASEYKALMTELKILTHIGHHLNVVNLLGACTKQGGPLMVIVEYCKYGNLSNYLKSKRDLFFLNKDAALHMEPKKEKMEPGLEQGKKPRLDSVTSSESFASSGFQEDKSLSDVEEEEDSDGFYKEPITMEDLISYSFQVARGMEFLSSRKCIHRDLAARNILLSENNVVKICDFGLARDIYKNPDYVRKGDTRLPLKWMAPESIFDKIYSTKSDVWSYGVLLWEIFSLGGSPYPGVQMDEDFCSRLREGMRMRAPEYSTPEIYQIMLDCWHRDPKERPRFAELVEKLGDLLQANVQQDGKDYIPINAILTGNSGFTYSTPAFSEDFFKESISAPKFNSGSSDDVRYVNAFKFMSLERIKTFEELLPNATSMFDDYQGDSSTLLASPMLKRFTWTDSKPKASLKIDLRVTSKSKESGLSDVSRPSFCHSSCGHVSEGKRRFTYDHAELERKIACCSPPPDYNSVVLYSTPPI
Chain of Delta-type opioid receptor (P41143 whole entry): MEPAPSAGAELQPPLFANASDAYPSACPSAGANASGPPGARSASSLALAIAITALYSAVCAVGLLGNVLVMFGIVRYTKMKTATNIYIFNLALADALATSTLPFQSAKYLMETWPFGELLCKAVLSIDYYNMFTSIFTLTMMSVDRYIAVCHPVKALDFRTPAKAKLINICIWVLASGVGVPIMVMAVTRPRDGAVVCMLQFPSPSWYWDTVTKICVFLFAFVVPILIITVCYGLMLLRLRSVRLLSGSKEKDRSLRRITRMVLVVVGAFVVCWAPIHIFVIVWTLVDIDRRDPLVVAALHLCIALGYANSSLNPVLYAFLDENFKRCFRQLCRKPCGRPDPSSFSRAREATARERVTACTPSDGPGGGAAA

CCC[C@@H]1C[C@@H](C(=O)N[C@@H]([C@H]2O[C@H](SC)[C@H](O)[C@@H](O)[C@H]2O)[C@@H](C)O)N(C)C1 [LINCOMYCIN]
Not Active: IC50 [1] | IC50 [2] | Ki [2] | IC50 [3] | IC50 (Acetylcholinesterase) | IC50 (D(3) dopamine receptor) | IC50 [4] | IC50 (Melanocortin receptor 5) | IC50 [5] | IC50 [6] | IC50 (Adenosine receptor A2a) | IC50 [7] | Ki [7] | IC50 (Cytochrome P450 2A6) | Ki (Cytochrome P450 2A6)

NNc1ccccc1 [PHENYLHYDRAZINE]
Not Active: IC50 [1] | IC50 [2] | Ki [2] | IC50 [3] | IC50 (Acetylcholinesterase) | IC50 (D(3) dopamine receptor) | IC50 [4] | IC50 (Melanocortin receptor 5) | IC50 [5] | IC50 [6] | IC50 (Adenosine receptor A2a) | IC50 [7] | Ki [7] | IC50 (Cytochrome P450 2A6) | Ki (Cytochrome P450 2A6)

NC(CO)(CO)CO [TROMETHAMINE]
Not Active: IC50 [1] | IC50 [2] | Ki [2] | IC50 [3] | IC50 (Acetylcholinesterase) | IC50 (D(3) dopamine receptor) | IC50 [4] | IC50 (Melanocortin receptor 5) | IC50 [5] | IC50 [6] | IC50 (Adenosine receptor A2a) | IC50 [7] | Ki [7] | IC50 (Cytochrome P450 2A6) | Ki (Cytochrome P450 2A6)

CC[C@H]1OC(=O)[C@H](C)[C@@H](O[C@H]2C[C@@](C)(OC)[C@@H](O)[C@H](C)O2)[C@H](C)[C@@H](O[C@@H]2O[C@H](C)C[C@H](N(C)C)[C@H]2O)[C@](C)(O)C[C@@H](C)/C(=N\OCOCCOC)[C@H](C)[C@@H](O)[C@]1(C)O [ROXITHROMYCIN]
Not Active: IC50 [1] | IC50 [2] | Ki [2] | IC50 [3] | IC50 (Acetylcholinesterase) | IC50 (D(3) dopamine receptor) | IC50 [4] | IC50 (Melanocortin receptor 5) | IC50 [5] | IC50 [6] | IC50 (Adenosine receptor A2a) | IC50 [7] | Ki [7] | IC50 (Cytochrome P450 2A6) | Ki (Cytochrome P450 2A6)

CC(C)[C@H](N)C(=O)OCCOCn1cnc2c(=O)nc(N)[nH]c21 [VALACYCLOVIR]
Not Active: IC50 [1] | IC50 [2] | Ki [2] | IC50 [3] | IC50 (Acetylcholinesterase) | IC50 (D(3) dopamine receptor) | IC50 [4] | IC50 (Melanocortin receptor 5) | IC50 [5] | IC50 [6] | IC50 (Adenosine receptor A2a) | IC50 [7] | Ki [7] | IC50 (Cytochrome P450 2A6) | Ki (Cytochrome P450 2A6)

NC(=O)c1ncn([C@@H]2O[C@H](CO)[C@@H](O)[C@H]2O)n1 [RIBAVIRIN]
Not Active: IC50 [1] | IC50 [2] | Ki [2] | IC50 [3] | IC50 (Acetylcholinesterase) | IC50 (D(3) dopamine receptor) | IC50 [4] | IC50 (Melanocortin receptor 5) | IC50 [5] | IC50 [6] | IC50 (Adenosine receptor A2a) | IC50 [7] | Ki [7] | IC50 (Cytochrome P450 2A6) | Ki (Cytochrome P450 2A6)

COC(=O)c1ccc(O)cc1 [METHYLPARABEN]
Not Active: IC50 [1] | IC50 [2] | Ki [2] | IC50 [3] | IC50 (Acetylcholinesterase) | IC50 (D(3) dopamine receptor) | IC50 [4] | IC50 (Melanocortin receptor 5) | IC50 [5] | IC50 [6] | IC50 (Adenosine receptor A2a) | IC50 [7] | Ki [7] | IC50 (Cytochrome P450 2A6) | Ki (Cytochrome P450 2A6)

COc1ccc(C(CN(C)C)C2(O)CCCCC2)cc1 (stereo not given) [VENLAFAXINE]
Not Active: IC50 [1] | IC50 [2] | Ki [2] | IC50 [3] | IC50 (Acetylcholinesterase) | IC50 (D(3) dopamine receptor) | IC50 [4] | IC50 (Melanocortin receptor 5) | IC50 [5] | IC50 [6] | IC50 (Adenosine receptor A2a) | IC50 [7] | Ki [7] | IC50 (Cytochrome P450 2A6) | Ki (Cytochrome P450 2A6)

COS(C)(=O)=O [METHANESULFONIC ACID METHYL ESTER]
Not Active: IC50 [1] | IC50 [2] | Ki [2] | IC50 [3] | IC50 (Acetylcholinesterase) | IC50 (D(3) dopamine receptor) | IC50 [4] | IC50 (Melanocortin receptor 5) | IC50 [5] | IC50 [6] | IC50 (Adenosine receptor A2a) | IC50 [7] | Ki [7] | IC50 (Cytochrome P450 2A6) | Ki (Cytochrome P450 2A6)
